We go through five molecules from US20100305087A1, “ACTIVE PHARMACEUTICAL INGREDIENT ON A SOLID SUPPORT, AMORPHOUS AND WITH AN IMPROVED SOLUBILITY” (Lek Pharmaceuticals d.d., priority 2007, published 2010).

Data set [1] can be described thus: Dissolution profile of ezetimibe preparations in water (amount dissolved over time). It counts as physicochemical. From the text:
The results are shown in Tables 1 to 3, and FIGS. 1 to 3.

Data set [2] in a line: Dissolution profile of atovaquone preparations in 10 mM triethylamine/HCl (pH=10) buffer. It is filed as physicochemical.
For data set [3] the following is noted: cited from earlier work.

Turning to `O=C1[C@H](CC[C@H](O)c2ccc(F)cc2)[C@@H](c2ccc(O)cc2)N1c1ccc(F)cc1` [Amorphous ezetimibe, 1-(4-fluorophenyl)-3-[3-(4-fluorophenyl)-3-hydroxy-propyl]-4-(4-hydroxyphenyl)-azetidin-2-one], the Amount dissolved was 0.19 µg/mL in data set [1] (Ezetimibe and Aerosil 200, time 10 min); 0.20 µg/mL in data set [1] (Ezetimibe and Aerosil 200, time 20 min); 0.27 µg/mL in data set [1] (Ezetimibe and Aerosil 200, time 45 min); 0.41 µg/mL in data set [1] (Ezetimibe and Aerosil 200, time 100 min).
In the case of `O=C1C(=O)c2ccccc2C(O)=C1C1CCC(c2ccc(Cl)cc2)CC1` (centres unmarked) [Crystalline atovaquone, 3-[4-(4-chlorophenyl)cyclohexyl]-4-hydroxy-naphthalene-1,2-dione], the Amount dissolved in data set [2] (Atovaquone and Aerosil 200, time 10 min) stood at 0.16 µg/mL; in data set [2] (Atovaquone and Aerosil 200, time 20 min) it was 0.7 µg/mL; in data set [2] (Atovaquone and Aerosil 200, time 60 min) it was 4.1 µg/mL; in data set [2] (Atovaquone and Aerosil 200, time 100 min), 6.2 µg/mL.
For `O=C1[C@H](CC[C@H](O)c2ccc(F)cc2)[C@@H](c2ccc(O)cc2)N1c1ccc(F)cc1` [Crystalline ezetimibe, 1-(4-fluorophenyl)-3-[3-(4-fluorophenyl)-3-hydroxy-propyl]-4-(4-hydroxyphenyl)-azetidin-2-one], the Amount dissolved in data set [1] (Ezetimibe and Prosolv, time 10 min) is 0.08 µg/mL; in data set [1] (Ezetimibe and Prosolv, time 20 min), 0.13 µg/mL; in data set [1] (Ezetimibe and Prosolv, time 60 min), 0.12 µg/mL; in data set [1] (Ezetimibe and Prosolv, time 100 min), 0.25 µg/mL.
As for `O=C1C(=O)c2ccccc2C(O)=C1C1CCC(c2ccc(Cl)cc2)CC1` (centres unmarked) [atovaquone, 3-[4-(4-chlorophenyl)cyclohexyl]-4-hydroxy-naphthalene-1,2-dione], the “log P/hydrophobicity value” in data set [3] is 5.251.
With `O=C1[C@H](CC[C@H](O)c2ccc(F)cc2)[C@@H](c2ccc(O)cc2)N1c1ccc(F)cc1` [ezetimibe, 1-(4-fluorophenyl)-3-[3-(4-fluorophenyl)-3-hydroxy-propyl]-4-(4-hydroxyphenyl)-azetidin-2-one], the “log P/hydrophobicity value” in data set [3] is recorded as 4.584.
